Results reported in patent publication US20220388953A1, “COMPOUNDS WITH ANTIMICROBIAL ACTIVITY” (The Hong Kong Polytechnic University, priority 2018, published 2022).
In brackets after ≈: the same amount, converted by molar mass. Read-outs that look alike come from different tables or passages of the source.

Columns and labels:
[1] = system: Streptococcus pneumoniae (Klein) Chester (ATCC 49619); assay: Antimicrobial assay, broth microdilution (CLSI), MIC; type: cell-based
Method: C3 derivatives were synthesized and antimicrobial activity measured against Streptococcus pneumoniae (MIC, minimum inhibitory concentration).
Bacterial Strains was used in this study is Streptococcus pneumoniae (Klein) Chester (ATCC® 49619™)
The antimicrobial activity of the compounds was determined by broth microdilution according to the Clinical & Laboratory Standards Institute (CLSI) guidelines. The test medium was cation-adjusted Mueller-Hinton broth (MH). Serial two-fold dilutions were performed for the tested chemicals starting from 256 μg/mL to 0.5 μg/mL, and the bacterial cell inoculum was adjusted to approximately 5×10^5 CFU/mL. Results were taken after 20 h of incubation at 37° C. The MIC was defined as the lowest concentration of antibiotic with no visible growth. Experiments were performed in duplicates.

[2] = ATCC49619, Table 1, Streptococcus pneumoniae ATCC 49619, 20 h at 37° C., read-out: MIC
[3] = Streptococcus pneumoniae, ATCC49619, 20 h
[4] = ATCC49619, Table 3, Streptococcus pneumoniae ATCC 49619, 20 h at 37° C., read-out: MIC

melting point [°C] | SMILES | also measured
191 to 193 | NS(=O)(=O)c1cccc(NCc2ccc(Sc3ccc(Cl)c(Cl)c3)c([N+](=O)[O-])c2)c1 [C3-074, 3-((4-((3,4-Dichlorophenyl)thio)-3-nitrobenzyl)amino)benzenesulfonamide] | 
222 to 224 | Cc1ccc(C(=O)O)cc1NCc1ccc(Sc2ccc(Cl)c(Cl)c2)c([N+](=O)[O-])c1 [C3-075, 3-((4-((3,4-Dichlorophenyl)thio)-3-nitrobenzyl)amino)-4-methylbenzoic Acid] | 
279 to 281 | O=C(Nc1ccccc1C(=O)O)c1ccc(Sc2ccc(Cl)c(Cl)c2)c([N+](=O)[O-])c1 [C3-077, 2-(4-((3,4-Dichlorophenyl)thio)-3-nitrobenzamido)benzoic Acid] | 
231 to 233 | O=C(O)c1ccc(Br)c(NCc2ccc(Sc3ccc(Cl)c(Cl)c3)c([N+](=O)[O-])c2)c1 [C3-078, 4-Bromo-3-((4-((3,4-dichlorophenyl)thio)-3-nitrobenzyl)amino)benzoic Acid] | 
148 to 150 | O=C(O)c1cc(NCc2ccc(Sc3ccc(Cl)c(Cl)c3)c([N+](=O)[O-])c2)ccc1Cl [C3-079, 2-Chloro-5-((4-((3,4-dichlorophenyl)thio)-3-nitrobenzyl)amino)benzoic Acid] | 
118 to 120 | O=[N+]([O-])c1cc(CNc2cccc(CO)c2)ccc1Sc1ccc(Cl)c(Cl)c1 [C3-080, (3-((4-((3,4-Dichlorophenyl)thio)-3-nitrobenzyl)amino)phenyl)methanol] | 
171 to 173 | O=C(O)c1ccccc1NCc1ccc(Sc2ccc(Cl)c(Cl)c2)c([N+](=O)[O-])c1 [C3-081, 2-((4-((3,4-Dichlorophenyl)thio)-3-nitrobenzyl)amino)benzoic Acid] | 
237 to 239 | O=C(O)c1ccc(F)c(NCc2ccc(Sc3ccc(Cl)c(Cl)c3)c([N+](=O)[O-])c2)c1 [C3-082, 3-((4-((3,4-Dichlorophenyl)thio)-3-nitrobenzyl)amino)-4-fluorobenzoic Acid] | 
164 to 166 | O=C(O)c1ccccc1C(=O)c1ccc(Sc2ccc(Cl)c(Cl)c2)cc1 [C3-083, 2-(4-((3,4-Dichlorophenyl)thio)benzoyl)benzoic Acid] | 
220 to 222 | O=C(O)c1ccc(Cl)cc1NCc1ccc(Sc2ccc(Cl)c(Cl)c2)c([N+](=O)[O-])c1 [C3-087, 4-Chloro-2-((4-((3,4-dichlorophenyl)thio)-3-nitrobenzyl)amino)benzoic Acid] | 
204 to 206 | O=C(O)c1c(Cl)cccc1NCc1ccc(Sc2ccc(Cl)c(Cl)c2)c([N+](=O)[O-])c1 [C3-088, 2-Chloro-6-((4-((3,4-Dichlorophenyl)thio)-3-nitrobenzyl)amino)benzoic Acid] | 
184 to 186 | NC(=O)c1ccccc1NCc1ccc(Sc2ccc(Cl)c(Cl)c2)c([N+](=O)[O-])c1 [C3-090, 2-((4-((3,4-Dichlorophenyl)thio)-3-nitrobenzyl)amino)benzamide] | 
173 to 175 | N#Cc1ccccc1NCc1ccc(Sc2ccc(Cl)c(Cl)c2)c([N+](=O)[O-])c1 [C3-091, 2-((4-((3,4-Dichlorophenyl)thio)-3-nitrobenzyl)amino)benzonitrile] | 
188 to 190 | Nc1cc(C(=O)c2ccccc2C(=O)O)ccc1Sc1ccc(Cl)c(Cl)c1 [C3-094, 2-(3-Amino-4-((3,4-dichlorophenyl)thio)benzoyl)benzoic Acid] | 
144 to 146 | CN(C)c1cc(C(=O)c2ccccc2C(=O)O)ccc1Sc1ccc(Cl)c(Cl)c1 [C3-095, 2-(4-((3,4-Dichlorophenyl)thio)-3-(dimethylamino)benzoyl)benzoic Acid] | 

More lines, now with the values behind:

SMILES | melting point [°C] | also measured
O=C(O)c1ccccc1C(=O)c1ccc(Nc2cccc(Cl)c2)c([N+](=O)[O-])c1 | 159 to 161 | 
COc1ccccc1Sc1ccc(C(=O)c2ccccc2C(=O)O)cc1[N+](=O)[O-] [C3-2, 2-(4-((2-Methoxyphenyl)thio)-3-nitrobenzoyl)benzoic Acid] | 209 to 211 | MIC [1, 2]: 128 µg/mL (≈ 313 µM)
O=C(O)c1ccccc1C(=O)c1ccc(Sc2ccccc2F)c([N+](=O)[O-])c1 [C3-3, 2-(4-((2-Fluorophenyl)thio)-3-nitrobenzoyl)benzoic Acid] | 175 to 176 | MIC [1, 2]: 128 µg/mL (≈ 322 µM)
O=C(O)c1ccccc1C(=O)c1ccc(Sc2ccccn2)c([N+](=O)[O-])c1 [C3-4, 2-(3-Nitro-4-(pyridin-2-ylthio)benzoyl)benzoic Acid] | 205 to 206 | MIC [1, 2]: > 256 µg/mL
Nc1cccc(Sc2ccc(C(=O)c3ccccc3C(=O)O)cc2[N+](=O)[O-])c1 [C3-5, 2-(4-((3-Aminophenyl)thio)-3-nitrobenzoyl)benzoic Acid] |  | MIC [1, 3]: 64 µg/mL (≈ 162 µM)
Nc1ccc(Sc2ccc(C(=O)c3ccccc3C(=O)O)cc2[N+](=O)[O-])cc1 [C3-6, 2-(4-((4-Aminophenyl)thio)-3-nitrobenzoyl)benzoic Acid] |  | MIC [1, 3]: 128 µg/mL (≈ 325 µM)
CC(C)Nc1cccc(Sc2ccc(C(=O)c3ccccc3C(=O)O)cc2[N+](=O)[O-])c1 [C3-7, 2-(4-((3-(Isopropylamino)phenyl)thio)-3-nitrobenzoyl)benzoic Acid] | 130 to 132 | MIC [1, 2]: 32 µg/mL (≈ 73.3 µM)
Nc1cc(Cl)ccc1Sc1ccc(C(=O)c2ccccc2C(=O)O)cc1[N+](=O)[O-] [C3-10, 2-(4-((2-Amino-4-chlorophenyl)thio)-3-nitrobenzoyl)benzoic Acid] |  | MIC [1, 3]: 64 µg/mL (≈ 149 µM)
O=C(O)c1ccccc1C(=O)c1ccc(Sc2ccc(Cl)c(Cl)c2)c([N+](=O)[O-])c1 [C3-13, 2-(4-((3,4-Dichlorophenyl)thio)-3-nitrobenzoyl)benzoic Acid] |  | MIC [1, 3]: 8 µg/mL (≈ 17.8 µM)
Nc1ccccc1Sc1ccc(C(=O)Nc2cccc(C(=O)O)c2)cc1[N+](=O)[O-] [C3-026, 3-(4-((2-Aminophenyl)thio)-3-nitrobenzamido)benzoic Acid] | 251 to 252 | 
Nc1ccccc1Sc1ccc(CNc2cccc(C(=O)O)c2)cc1[N+](=O)[O-] [C3-027, 3-((4-((2-Aminophenyl)thio)-3-nitrobenzyl)amino)benzoic Acid] | 105 to 107 | 
NC1CCCCC1Nc1ccc(C(=O)c2ccccc2C(=O)O)cc1[N+](=O)[O-] (stereo not drawn) [C3-28, 2-(4-((2-Aminocyclohexyl)amino)-3-nitrobenzoyl)benzoic Acid] |  | MIC [1, 2]: 256 µg/mL (≈ 668 µM)
Nc1ccccc1Sc1ccc(C2(O)NC(=O)c3ccccc32)cc1[N+](=O)[O-] (stereo not drawn) [C3-39] |  | MIC [1, 4]: 32 µg/mL (≈ 81.3 µM)
Nc1ccccc1Sc1ccc(C2(O)c3ccccc3C(=O)N2c2ccccc2)cc1[N+](=O)[O-] (stereo not drawn) [C3-41] |  | MIC [1, 3]: > 256 µg/mL
NC(=O)c1cccc(N2C(=O)c3ccccc3C2(O)c2ccc(Sc3ccccc3N)c([N+](=O)[O-])c2)c1 (stereo not drawn) [C3-42] |  | MIC [1, 4]: 32 µg/mL (≈ 62.4 µM)
Nc1ccccc1Sc1ccc(C2(O)c3ccccc3C(=O)N2c2cccc(C(=O)O)c2)cc1[N+](=O)[O-] (stereo not drawn) [C3-43] |  | MIC [1, 3]: 64 µg/mL (≈ 125 µM)
CC(C)(C)c1cccc(N2C(=O)c3ccccc3C2(O)c2ccc(Sc3ccccc3N)c([N+](=O)[O-])c2)c1 (stereo not drawn) [C3-44] |  | MIC [1, 4]: > 256 µg/mL
Cc1cccc(N2C(=O)c3ccccc3C2(O)c2ccc(Sc3ccccc3N)c([N+](=O)[O-])c2)c1 (stereo not drawn) [C3-45] |  | MIC [1, 4]: > 256 µg/mL
Nc1ccccc1Sc1ccc(C2(O)c3ccccc3C(=O)N2c2cccc(Cl)c2)cc1[N+](=O)[O-] (stereo not drawn) [C3-46] |  | MIC [1, 3]: > 256 µg/mL
O=C(O)c1cccc(NCc2ccc(Sc3ccc(Cl)c(Cl)c3)c([N+](=O)[O-])c2)c1 [C3-047, 3-((4-((3,4-Dichlorophenyl)thio)-3-nitrobenzyl)amino)benzoic Acid] | 224 to 226 | 
Nc1ccccc1Sc1ccc(C2(O)c3ccccc3C(=O)N2Cc2ccccc2)cc1[N+](=O)[O-] (stereo not drawn) [C3-47] |  | MIC [1, 4]: > 256 µg/mL
O=C(O)c1cccc(NC(=O)c2ccc(Sc3ccc(Cl)c(Cl)c3)c([N+](=O)[O-])c2)c1 [C3-048, 3-(4-((3,4-Dichlorophenyl)thio)-3-nitrobenzamido)benzoic Acid] | 280 to 282 | 
Nc1ccccc1Sc1ccc(C2(O)c3ccccc3C(=O)N2Cc2ccccc2F)cc1[N+](=O)[O-] (stereo not drawn) [C3-48] |  | MIC [1, 4]: > 256 µg/mL
Nc1ccccc1Sc1ccc(C(=O)Nc2ccc(C(=O)O)cc2)cc1[N+](=O)[O-] [C3-056, 4-(4-((2-Aminophenyl)thio)-3-nitrobenzamido)benzoic Acid] | 247 to 249 | 
Nc1ccccc1Sc1ccc(C(=O)Nc2ccccc2C(=O)O)cc1[N+](=O)[O-] [C3-057, 2-(4-((2-Aminophenyl)thio)-3-nitrobenzamido)benzoic Acid] | 259 to 261 | 
Nc1ccccc1Sc1ccc(CNc2ccccc2C(=O)O)cc1[N+](=O)[O-] [C3-065, 2-((4-((2-Aminophenyl)thio)-3-nitrobenzyl)amino)benzoic Acid] | 201 to 203 | 
NC(=O)c1cccc(NCc2ccc(Sc3ccc(Cl)c(Cl)c3)c([N+](=O)[O-])c2)c1 [C3-066, 3-((4-((3,4-Dichlorophenyl)thio)-3-nitrobenzyl)amino)benzamide] | 158 to 160 | 
O=C(O)c1ccc(Cl)c(NCc2ccc(Sc3ccc(Cl)c(Cl)c3)c([N+](=O)[O-])c2)c1 [C3-071, 4-Chloro-3-((4-((3,4-dichlorophenyl)thio)-3-nitrobenzyl)amino)benzoic Acid] | 196 to 198 | 
O=C(O)c1ccc(N2CCOCC2)c(NCc2ccc(Sc3ccc(Cl)c(Cl)c3)c([N+](=O)[O-])c2)c1 [C3-073, 3-((4-((3,4-Dichlorophenyl)thio)-3-nitrobenzyl)amino)-4-morpholinobenzoic Acid] | 147 to 149 | 
